# Assay results: patent US6489295B1, “Antagonists of intestinotrophic GLP-2 peptides” (1149336 Ontario Inc., priority 1996, dated 2002)
# Read-outs that look alike come from different tables or passages of the source. Non-standard residues stand in square brackets, D forms with d. Residues, ends and D or L forms follow the SMILES beside them. No end group written: not given here. pY = N[C@@H](Cc1ccc(OP(=O)(O)O)cc1)C(=O)O
# What was measured:
# human placental DPP-IV [1] = target: T1, human placental DPP-IV (Homo sapiens, UniProt P27487)
# Protocol: (§1) To perform the assay, 2.5 microliters (μl) of a solution of human placental DPP-IV (Calbiochem, La Jolla, Calif., cat. # 317624) containing 0.125 milliunits (mU) of enzyme in 50% glycerol, mM Tris, pH 7.8, EDTA and 0.02% NaN3 was added to 50 μl of a solution of the test peptide prepared at a concentration of 0.2 mg/ml in PBS at pH 7.4. The mixture was incubated at 37° C. in a circulating water bath for 24 hours. The incubation was quenched by the addition of 50 μl of a solution of diprotin A prepared at a concentration of 4 mg/ml in PBS. Each peptide was tested in duplicate.
# (§2) Each sample was analyzed by reverse-phase (RP) HPLC as follows: 90 μl of the quenched incubation mixture was injected onto a Rainin Dynamax 300 Å, C18, 5 micron, 4.6×250 millimeter column. The samples were eluted with 0.1% trifluoroacetic acid (TFA) in water modified with 0.1% acetonitrile using a linear gradient and a flow rate of 1 ml per minute. Sample components were detected at 214 nanometers (nm). The extent of cleavage was measured by relative integration of the peak corresponding to the cleavage product compared to that of the remaining undigested parent peptide.
# [2] = tested on: intestinotrophic activity of rat GLP-2; assay: GLP-2 antagonist assessment by co-administration into mice with GLP-2 (small bowel weight); format: in vivo; details: CD1 female mice, 10-14 days
# Protocol: The candidate peptide antagonist and rat GLP-2 were dissolved in PBS to give a final ratio of 25 μg antagonist/2.5 μg GLP-2 per 0.5 ml phosphate buffered saline solution (for a 10:1 ratio), or […] antagonist/2.5 μg GLP-2 per 0.5 ml phosphate buffered saline solution (for a 4:1 ratio), as indicated. The antagonist/GLP-2 mixture was administered to 6-8 week old CD1 female mice subcutaneously, with the amount of peptide injected being 25 μg antagonist/2.5 μg GLP-2 in 0.5 ml twice a day, or 12.5 μg antagonist/2.5 μg GLP-2 in 0.5 ml twice a day. After 10-14 days, peptide-injected and control (saline-injected) mice were sacrificed, and small bowel weights were determined.
# human placental DPP-IV [3] = target: T1, human placental DPP-IV; assay: Assay for resistance to dipeptidyl peptidase IV; details: 24 hours at 37° C., RP-HPLC
# Protocol: as §1, §2
# [4] = antagonist to GLP-2 ratio 10:1 by weight (25 μg/2.5 μg rat GLP-2) s.c. twice a day
# T1 sequence (P27487 whole entry): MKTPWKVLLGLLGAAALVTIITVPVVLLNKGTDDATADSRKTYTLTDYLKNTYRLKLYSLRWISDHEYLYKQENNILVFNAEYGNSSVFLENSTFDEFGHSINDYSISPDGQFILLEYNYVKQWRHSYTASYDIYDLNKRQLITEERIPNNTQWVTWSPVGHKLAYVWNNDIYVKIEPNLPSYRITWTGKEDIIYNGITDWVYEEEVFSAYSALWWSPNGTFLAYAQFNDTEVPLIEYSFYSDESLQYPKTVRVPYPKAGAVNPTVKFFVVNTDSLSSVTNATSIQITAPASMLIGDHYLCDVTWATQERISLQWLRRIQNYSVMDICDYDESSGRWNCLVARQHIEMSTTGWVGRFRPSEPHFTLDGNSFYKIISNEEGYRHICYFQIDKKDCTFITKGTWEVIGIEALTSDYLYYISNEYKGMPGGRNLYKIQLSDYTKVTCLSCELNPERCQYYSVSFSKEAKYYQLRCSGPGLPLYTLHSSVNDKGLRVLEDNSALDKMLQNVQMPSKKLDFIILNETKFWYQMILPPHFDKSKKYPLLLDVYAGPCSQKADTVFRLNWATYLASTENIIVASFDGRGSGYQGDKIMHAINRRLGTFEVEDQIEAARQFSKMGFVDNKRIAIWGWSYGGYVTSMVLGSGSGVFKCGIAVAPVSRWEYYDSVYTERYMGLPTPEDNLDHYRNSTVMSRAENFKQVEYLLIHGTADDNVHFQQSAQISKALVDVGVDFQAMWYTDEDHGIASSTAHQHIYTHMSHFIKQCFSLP
Compound,cleavage products detected after DPP-IV incubation (human placental DPP-IV [1]),further results
ratGLP-2(4-33),–,"% Antagonism [2, 4]: 32%"
HEDGSFSDEMNTILDNLAARDFINWLIQTKITD [[Glu^2]GLP-2],No cleavage products were detected,–
HCDGSFSDEMNTILDNLAARDFINWLIQTKITD [[Cys^2]GLP-2],No cleavage products were detected,–
[Gly^2]ratGLP-2,–,cleavage products detected after DPP-IV incubation (human placental DPP-IV [3]): No cleavage products were detected
ratGLP-2(3-33),–,% Antagonism ([2]; antagonist to GLP-2 ratio 4:1 by weight (12.5 μg/2.5 μg rat GLP-2) s.c. twice a day): 33%
[D-Ala^2]ratGLP-2,–,cleavage products detected after DPP-IV incubation (human placental DPP-IV [3]): No cleavage products were detected
ratGLP-2(2-33),–,"% Antagonism [2, 4]: 42%"
ratGLP-2(5-33),–,"% Antagonism [2, 4]: 16%"

# Now from value to compound, other results behind:
cleavage products detected after DPP-IV incubation (human placental DPP-IV [1]),Compound,further results
No cleavage products were detected,"HGDGSFSDEMNTILDNLAARDFINWLIQTKITA [[Gly^2, Ala^33]GLP-2]",–
No cleavage products were detected,"HGDGSFSDEMNTILDNLAARDAINWLIQTKITD [[Gly^2, Ala^22]GLP-2]",–
No cleavage products were detected,CC[C@H](C)[C@H](NC(=O)[C@H](Cc1ccccc1)NC(=O)[C@H](CC(=O)O)NC(=O)[C@H](CCCNC(=N)N)NC(=O)[C@H](C)NC(=O)[C@H](C)NC(=O)[C@H](CC(C)C)NC(=O)[C@H](CC(N)=O)NC(=O)[C@H](CC(=O)O)NC(=O)[C@H](CC(C)C)NC(=O)[C@@H](NC(=O)[C@@H](NC(=O)[C@H](CC(N)=O)NC(=O)[C@H](CCSC)NC(=O)[C@H](CCC(=O)O)NC(=O)[C@H](CC(=O)O)NC(=O)[C@H](CO)NC(=O)[C@H](Cc1ccccc1)NC(=O)[C@H](CO)NC(=O)CNC(=O)[C@H](CC(=O)O)NC(=O)[C@H](Cc1ccc(OP(=O)(O)O)cc1)NC(=O)[C@@H](N)Cc1c[nH]cn1)[C@@H](C)O)[C@@H](C)CC)C(=O)N[C@@H](CC(N)=O)C(=O)N[C@@H](Cc1c[nH]c2ccccc12)C(=O)N[C@@H](CC(C)C)C(=O)N[C@H](C(=O)N[C@@H](CCC(N)=O)C(=O)N[C@H](C(=O)N[C@@H](CCCCN)C(=O)N[C@H](C(=O)N[C@H](C(=O)N[C@@H](CC(=O)O)C(=O)O)[C@@H](C)O)[C@@H](C)CC)[C@@H](C)O)[C@@H](C)CC [[PO3-Tyr^2]GLP-2] (H-H[pY]DGSFSDEMNTILDNLAARDFINWLIQTKITD-OH; N-terminus and C-terminus assumed),–
No cleavage products were detected,"HGDGSFSDEMNTILANLAARDFINWLIQTKITD [[Gly^2, Ala^15]GLP-2]",–
No cleavage products were detected,HWDGSFSDEMNTILDNLAARDFINWLIQTKITD [[Trp^2]GLP-2],–
No cleavage products were detected,HLDGSFSDEMNTILDNLAARDFINWLIQTKITD [[Leu^2]GLP-2],–
No cleavage products were detected,"HGDGSFSDEMNTILDNLAARDFINWLIQTKIAD [[Gly^2, Ala^32]GLP-2]",–
No cleavage products were detected,"HGDGSFSDEMNTILDNLAARDFINWLIQAKITD [[Gly^2, Ala^29]GLP-2]",–
No cleavage products were detected,HRDGSFSDEMNTILDNLAARDFINWLIQTKITD [[Arg^2]GLP-2],–
